Measured values taken from US8598374B2, “GPR120 receptor agonists and uses thereof” (Metabolex, Inc, priority 2008, dated 2013).

Biological target: T1, human GPR120 (Homo sapiens, UniProt Q5NUL3)
T1 construct: Flag (DYKDDDDK) (N); host or cells: HEK293 cells co-expressing Gqi5
T1 sequence (Q5NUL3 1-361): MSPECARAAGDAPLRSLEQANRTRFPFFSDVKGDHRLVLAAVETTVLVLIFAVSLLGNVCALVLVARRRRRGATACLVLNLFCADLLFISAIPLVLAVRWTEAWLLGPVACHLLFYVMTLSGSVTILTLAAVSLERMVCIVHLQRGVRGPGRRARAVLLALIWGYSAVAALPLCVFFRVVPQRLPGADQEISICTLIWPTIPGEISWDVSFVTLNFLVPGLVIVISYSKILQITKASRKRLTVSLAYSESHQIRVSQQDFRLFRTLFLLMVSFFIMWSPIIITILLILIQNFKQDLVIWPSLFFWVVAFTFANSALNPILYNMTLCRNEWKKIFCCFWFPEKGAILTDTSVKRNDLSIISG
Experiment: Intracellular Ca2+ assay (FLIPR Calcium 4, Flexstation) in human GPR120 stable cell line
Assay type: cell-based
Conditions: for EC50: human GPR120 stably expressing cells, eight concentrations from 0.00001 to 20 μM; for % Activity (Ex. 25 Reference Compound): % activity at 2.5 μM compared to the maximal activity of the compound of Example 25 at 2.5 μM, HEK293 cells co-expressing Gqi5
Protocol: Human GPR120 stable cell line was purchased from Multispan Inc (26219 Eden Landing Road, Hayward, Calif. 94545). This GPR120 cell line was generated in HEK293 cells co-expressing Gqi5. In this cell line, the Flag epitope tag (DYKDDDDK) was fused to the amino terminus of human GPR120 protein.
The concentration of intracellular Ca^2+ was measured as described below. Human GPR120 cells were plated in 96 well plates (Poly-D-Lysine coated black/clear Plate, Greiner Bio-One) at 70,000 cells per well and cultured overnight in conditions of 37° C. and 5% CO2. A Ca^2+ assay dye stock solution was prepared by adding 10 mL of assay buffer (HBSS/20 mM HEPES, pH 7.4) to FLIPR Calcium 4 Assay Bulk Kit (Molecular Devices). The 10 mL of Ca^2+ assay dye solution was prepared by further diluting 0.5 mL of Ca^2+ assay dye stock solution with 10 mL of assay buffer. The medium of the cells was removed and immediately 100 μL of the Ca^2+ assay dye solution was dispensed into each well followed by incubation at 37° C. and 5% CO2 for 50 minutes to incorporate the Ca^2+ dye into the cells. The cell plate was then placed in the Flexstation (Molecular Devices) for 20 minutes at 37° C. Compounds were dissolved in 100% DMSO and diluted to desired concentrations with assay buffer and placed in the Flexstation simultaneously with the cell plate for 20 minute incubation at 37° C. prior to reading. Fluorescence intensity was measured immediately following compound addition (25 μL/well) on the Flexstation at an excitation wavelength of 485 nm and an emission wavelength of 525 with 515 nm auto cutoff. The resulting increase in fluorescence intensities corresponds to increases in intracellular Ca^2+ levels.
Compounds were dissolved in 100% DMSO to a concentration of 20 mM to provide stock solutions. To determine activity against human GPR120, compounds were added with human GPR120 stably expressing cells (described above), at eight desired concentrations ranging from 0.00001 to 20 μM, in 96 well plates and fluorescence intensities were measured for 90 seconds with 2-second intervals. An EC50 value (concentration of the GPR120 agonist where 50% of the agonist's maximal activity is observed) was calculated using the changes (Max-Min) of fluorescence intensity.
To determine percent activity for a tested compound, the fluorescence intensity value obtained at a particular concentration were compared to the maximal fluorescence intensity value obtained for reference compound GW9508 (4-[[(3-phenoxyphenyl)methyl]amino]benzene propanoic acid; British Journal of Pharmacology 2006 148, 619-628) or the compound of Example 25. When GW9508 was used as the reference compound, the maximal activity of GW9508 at 6.7 μM was designated as 100% activity. When the compound of Example 25 was used as the reference compound, the maximal activity of the compound of Example 25 at 2.5 μM was designated as 100% activity. Typically, the GW9508 activity reached a maximum at a concentration of approximately 6.7 μM and typically the compound of Example 25 reached a maximum activity at approximately 2.5 μM.

| Compound | EC50 | % Activity (Ex. 25 Reference Compound) |
| --- | --- | --- |
| COc1cc(CCC(=O)O)c(Br)cc1OCc1cc(Cl)cc2c1OC(C)(C)C2 [Example 57, 3-(2-bromo-4-((5-chloro-2,2-dimethyl-2,3-dihydrobenzofuran-7-yl)methoxy)-5-methoxyphenyl)propanoic acid] | 1 to 10 µM |  |
| CC1(C)Cc2cc(F)cc(COc3ccc(SCC(=O)O)cc3)c2O1 [Example 58, 2-((4-((5-fluoro-2,2-dimethyl-2,3-dihydrobenzofuran-7-yl)methoxy)phenyl)thio)-acetic acid] | 1 to 10 µM |  |
| CC1(C)Cc2cc(Cl)cc(COc3ccc(SCC(=O)O)cc3)c2O1 [Example 59, 2-((4-((5-chloro-2,2-dimethyl-2,3-dihydrobenzofuran-7-yl)methoxy)phenyl)thio)-acetic acid] | 1 to 10 µM | 117.58% |
| CCc1cc(OCc2cc(F)cc3c2OC(C)(C)C3)ccc1/C=C/C(=O)O [Example 60, (E)-3-(2-ethyl-4-((5-fluoro-2,2-dimethyl-2,3-dihydrobenzofuran-7-yl)methoxy)phenyl)acrylic acid] | 1 to 10 µM |  |
| CC1(C)Cc2cc(F)cc(COc3ccc(CCC(=O)O)c(C(F)(F)F)c3)c2O1 [Example 61, 3-(4-((5-fluoro-2,2-dimethyl-2,3-dihydrobenzofuran-7-yl)methoxy)-2-(trifluoromethyl)phenyl)propanoic acid] | 1 to 10 µM |  |
| CC1(C)Cc2cc(Cl)cc(COc3ccc(CCC(=O)O)c(C(F)(F)F)c3)c2O1 [Example 62, 3-(4-((5-chloro-2,2-dimethyl-2,3-dihydrobenzofuran-7-yl)methoxy)-2-(trifluoromethyl)phenyl)propanoic acid] | 1 to 10 µM |  |
| CC1(C)Cc2cc(F)cc(COc3ccc(CCC(=O)O)c4c3CCC4)c2O1 [Example 63, 3-(7-((5-fluoro-2,2-dimethyl-2,3-dihydrobenzofuran-7-yl)methoxy)-2,3-dihydro-1H-inden-4-yl)propanoic acid] | 1 to 10 µM | 95.03% |
| CC1(C)Cc2cc(Cl)cc(COc3ccc(CCC(=O)O)c4c3CCC4)c2O1 [Example 64, 3-(7-((5-chloro-2,2-dimethyl-2,3-dihydrobenzofuran-7-yl)methoxy)-2,3-dihydro-1H-inden-4-yl)propanoic acid] | 1 to 10 µM |  |
| C[C@H](Cc1ccc(OCc2cc(F)cc3c2OC(C)(C)C3)cc1)C(=O)O [Example 65, (R)-3-(4-((5-fluoro-2,2-dimethyl-2,3-dihydrobenzofuran-7-yl)methoxy)phenyl)-2-methylpropanoic acid] | 1 to 10 µM | 141.04% |
| C[C@@H](Cc1ccc(OCc2cc(F)cc3c2OC(C)(C)C3)cc1)C(=O)O [Example 66, (S)-3-(4-((5-fluoro-2,2-dimethyl-2,3-dihydrobenzofuran-7-yl)methoxy)phenyl)-2-methylpropanoic acid] | 1 to 10 µM |  |
| CC(Cc1ccc(NCc2cc(F)cc3c2OC(C)(C)C3)cc1)C(=O)O (stereo not drawn) [Example 67] | 1 to 10 µM | 141.82% |
| CC1(C)Cc2cc(F)cc(CCc3ccc(OCC(=O)O)cc3)c2O1 [Example 70, 2-(4-(2-(5-fluoro-2,2-dimethyl-2,3-dihydrobenzofuran-7-yl)ethyl)phenoxy)acetic acid] |  | 117.72% |
| CC(Cc1ccc(OCc2cc(-c3ccc(Cl)cc3)cc3c2OC(C)(C)C3)cc1)C(=O)O (stereo not drawn) [Example 82, 3-(4-((5-(4-chlorophenyl)-2,2-dimethyl-2,3-dihydrobenzofuran-7-yl)methoxy)phenyl)-2-methylpropanoic acid] |  | 24% |

Results, then the molecule that gave them:

| EC50 | % Activity (Ex. 25 Reference Compound) | Compound |
| --- | --- | --- |
|  | 69.03% | CC(Cc1ccc(NC(=O)c2cc(F)cc3c2OC(C)(C)C3)cc1)C(=O)O (stereo not drawn) [Example 68, 3-(4-(5-fluoro-2,2-dimethyl-2,3-dihydrobenzofuran-7-carboxamido)phenyl)-2-methylpropanoic acid] |
|  | 78.46% | CCOC(Cc1cc(F)c(OCc2cc(F)cc3c2OC(C)(C)C3)c(F)c1)C(=O)O (stereo not drawn) [Example 69, 3-(3,5-difluoro-4-((5-fluoro-2,2-dimethyl-2,3-dihydrobenzofuran-7-yl)methoxy)phenyl)-2-ethoxypropanoic acid] |
|  | 133.8% | CC1(C)Cc2cc(Cl)cc(COc3ccc(CCC(=O)O)c(-c4ccccc4)c3)c2O1 [Example 71, 3-(5-((5-chloro-2,2-dimethyl-2,3-dihydrobenzofuran-7-yl)methoxy)-[1,1′-biphenyl]-2-yl)propanoic acid] |
|  | 114.85% | CCCc1cc(OCc2cc(Cl)cc3c2OC(C)(C)C3)c(F)cc1CCC(=O)O [Example 73, 3-(4-((5-chloro-2,2-dimethyl-2,3-dihydrobenzofuran-7-yl)methoxy)-5-fluoro-2-propylphenyl)propanoic acid] |
|  | 109.62% | CC(Cc1ccc(OCc2cc(Cl)cc3c2OC(C)(C)C3=O)c(F)c1)C(=O)O (stereo not drawn) [Example 77, 3-(4-((5-chloro-2,2-dimethyl-3-oxo-2,3-dihydrobenzofuran-7-yl)methoxy)-3-fluorophenyl)-2-methylpropanoic acid] |
|  | 3.85% | CC(Cc1ccc(OCc2cc(Cl)cc3c2OC(C)(C)C3=O)c(C(F)(F)F)c1)C(=O)O (stereo not drawn) [Example 79, 3-(4-((5-chloro-2,2-dimethyl-3-oxo-2,3-dihydrobenzofuran-7-yl)methoxy)-3-(trifluoromethyl)phenyl)-2-methylpropanoic acid] |
|  | 86.25% | CC(Cc1ccc(OCc2cc(Cl)cc3c2OC(C)(C)C3O)c(F)c1)C(=O)O (stereo not drawn) [Example 80, 3-(4-((5-chloro-3-hydroxy-2,2-dimethyl-2,3-dihydrobenzofuran-7-yl)methoxy)-3-fluorophenyl)-2-methylpropanoic acid] |
| 1 to 10 µM | 5.23% | COc1cccc(-c2cc(COc3ccc(CC(C)C(=O)O)cc3)c3c(c2)CC(C)(C)O3)c1 (stereo not drawn) [Example 86, 3-(4-((5-(3-methoxyphenyl)-2,2-dimethyl-2,3-dihydrobenzofuran-7-yl)methoxy)phenyl)-2-methylpropanoic acid] |
| 1 to 10 µM |  | CC(Cc1ccc(OCc2cc(-c3cccc(C(F)(F)F)c3)cc3c2OC(C)(C)C3)cc1)C(=O)O (stereo not drawn) [Example 87, 3-(4-((2,2-dimethyl-5-(3-(trifluoromethyl)phenyl)-2,3-dihydrobenzofuran-7-yl)methoxy)phenyl)-2-methylpropanoic acid] |
| 1 to 10 µM | 118.92% | CC(Cc1ccc(OCc2cc(Cl)cc3c2OC(C)(C)C3)c(CN(C)C)c1)C(=O)O (stereo not drawn) [Example 88, 3-(4-((5-chloro-2,2-dimethyl-2,3-dihydrobenzofuran-7-yl)methoxy)-3-((dimethylamino)methyl)phenyl)-2-methylpropanoic acid] |
| 1 to 10 µM | 82.28% | CCN(CC)c1cc(COc2ccc(CC(C)C(=O)O)cc2)c2c(c1)CC(C)(C)O2 (stereo not drawn) [Example 89, 3-(4-((5-(diethylamino)-2,2-dimethyl-2,3-dihydrobenzofuran-7-yl)methoxy)phenyl)-2-methylpropanoic acid] |
| 1 to 10 µM | 75.86% | CC(Cc1ccc(OCc2cc(-n3cnnn3)cc3c2OC(C)(C)C3)cc1)C(=O)O (stereo not drawn) [Example 90, 3-(4-((2,2-dimethyl-5-(1H-tetrazol-1-yl)-2,3-dihydrobenzofuran-7-yl)methoxy)phenyl)-2-methylpropanoic acid] |
